Where two headings read alike, the source gives them in different places.
Experiments:
[1] = tested on: MCF-7 (ER+, Her2−) human breast cancer cells; test: MTT cell viability assay, MCF-7 cells; assay type: cell-based
How it was run: (§1)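 Viability is scored colorimetrically by MTT after cells, plated at 2×10^3 to 1×10^4 per well the night before, receive compounds for 24 h to 72 h; 0.5% DMSO-treated wells define 100%.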

[2] = tested on: A498 kidney cancer cell line; test: MTT cell viability assay, A498; assay type: cell-based; conditions: Homo sapiens, 24 h
Procedure: (§2) Normal or cancer cells (2×10^3 to 1×10^4 cells/well) were seeded in 96-well plate for overnight and treated with different compounds for 24 h to 72 h. Cells growth were determined by MTT-based colorimetric assays according to. Viability of the test cells treated with vehicle (0.5% DMSO) only was defined as 100% viable. Survival of cells after treatment with DETDs was calculated using the following formula: viable cell number (%)=OD570 (treated cell culture)/OD570 (vehicle control)×100.
(§3) Based on toxicity results of DET and DETDs on different breast cancer and melanoma cell lines, we selected DETD-6, -32, -35 and -39, under the consideration of structure activity relationship for evaluating their suppression effect against other cancer types of cell line with indicated tumor origin in Table 5. […] The cells were treated with compounds for 24 h and then subjected to MTT assays.

[3] = tested on: KATO III stomach cancer cell line; test: MTT cell viability assay, KATO III; assay type: cell-based; conditions: Homo sapiens, 24 h
Procedure: as §2, §3

[4] = tested on: LPS-induced nitric oxide (NO) production in RAW 264.7 cells; test: Nitric oxide production in LPS-stimulated macrophages (Griess); assay type: cell-based, mouse; conditions: Mus musculus; LPS-stimulated RAW264.7, nitrite 24 h after LPS
How it was run: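 RAW 264.7 macrophages (2×10^5 cells/well) were pretreated with compound for 1 h and then stimulated with 100 ng/μL LPS for 24 h. NO was measured as nitrite in the medium by the Griess reaction. Viability was checked in parallel by MTT.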

[5] = tested on: SK-N-MC neuroepithelioma line; test: MTT cell viability assay, SK-N-MC; assay type: cell-based; conditions: Homo sapiens, 24 h
Procedure: as §2, §3

[6] = tested on: MDA-MB-231 (ER−, PR−, Her2−) human breast cancer cells; test: MTT cell viability assay, MDA-MB-231 cells; assay type: cell-based; conditions: for IC50: Homo sapiens
How it was run: as §1

[7] = tested on: U-87MG brain cancer cell line; test: MTT cell viability assay, U-87MG; assay type: cell-based; conditions: Homo sapiens, 24 h
Procedure: as §2, §3

[8] = tested on: TS/A (ER+, Her2−) murine mammary cancer cells; test: MTT cell viability assay, TS/A cells; assay type: cell-based; conditions: Mus musculus
How it was run: as §1

[9] = tested on: melanoma cell lines B16-F10, MeWo, A375, A2058, HTB-68; test: MTT cell viability assay, all melanoma cell lines; assay type: cell-based; conditions: 24 h, read-out: IC50 values over all types of melanoma cell lines
Procedure: as §2
Several genes are involved in melanoma development and pathology; specifically, mutation in V-raf murine sarcoma viral oncogene homolog B1 (B-RAF) occurs approximately 50-60% and in neuroblastoma RAS viral oncogene homolog (N-RAS) occurs about 30% of malignant melanomas. A spectrum of wild-type or mutated melanoma cell lines including B16-F10, MeWo, A375, A2058, HTB-68, and melanocyte were used to study anti-melanoma cell proliferation activity of parental phytocompound DET and newly synthesized DETDs.

[10] = tested on: Melanocyte (Normal cells); test: MTT cell viability assay, normal melanocytes; assay type: cell-based, human; conditions: Homo sapiens, Melanocyte, 24 h
How it was run: (§4)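 Viability is determined colorimetrically with MTT after a 24 h to 72 h compound treatment. Vehicle wells containing 0.5% DMSO define 100% viability, and treated OD570 values are expressed relative to them.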

[11] = tested on: PC6 lung cancer cell line; test: MTT cell viability assay, PC6; assay type: cell-based; conditions: 24 h
Procedure: as §2, §3

PC3 (Prostate) = test: MTT cell viability assay, PC3; assay type: cell-based; conditions: 24 h
Procedure: as §2, §3

[12] = tested on: M10 normal mammary epithelial cells; test: MTT cell viability assay, M10 normal cells; assay type: cell-based, human; conditions: 24 h; for IC50: Homo sapiens, Epithelial cell
How it was run: as §1

A375 (BRAF mutation) = test: MTT cell viability assay, A375 melanoma; assay type: cell-based, human; conditions: Homo sapiens, A-375, 24 h, 24 h, MTT; read-out: IC50 on cell viability, A375 (BRAF mutation)
How it was run: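 A375 cells were seeded at 2×10^3 to 1×10^4 per well overnight and then exposed to compounds for 24 h to 72 h. Viability was measured by MTT absorbance at OD570 relative to 0.5% DMSO vehicle (100%), and IC50 was derived from it. Combination with PLX4032 was scored by combination index.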

A2058 (BRAF mutation) = test: MTT cell viability assay, A2058 melanoma; assay type: cell-based, human; conditions: Homo sapiens, A2058, 24 h
How it was run: as §4

HTB-68 (NRAS mutation) = test: MTT cell viability assay, HTB-68 melanoma; assay type: cell-based, human; conditions: Homo sapiens, 24 h
How it was run: as §4

[13] = tested on: NES-SA uterus cancer cell line; test: MTT cell viability assay, NES-SA; assay type: cell-based; conditions: 24 h
Procedure: as §2, §3

U937 lymphoma line = test: MTT cell viability assay, U937; assay type: cell-based; conditions: Homo sapiens, U-937, 24 h
Procedure: as §2, §3

[14] = tested on: MeWo (No NRAS or BRAF mutation); test: MTT cell viability assay, MeWo melanoma; assay type: cell-based, human; conditions: Homo sapiens, MeWo, 24 h
How it was run: as §4

[15] = tested on: HCT-116 colon cancer cell line; test: MTT cell viability assay, HCT-116; assay type: cell-based; conditions: Homo sapiens, 24 h
Procedure: as §2, §3

B16-F10 (NRAS mutation) = test: MTT cell viability assay, B16-F10 melanoma; assay type: cell-based; conditions: Mus musculus, B16-F10, 24 h
How it was run: as §4

[16] = tested on: RAW264.7 (normal macrophage); test: MTT cell viability assay, RAW264.7 macrophages; assay type: cell-based, mouse; conditions: Mus musculus, RAW264.7, 24 h
How it was run: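 RAW264.7 macrophages (2×10^5 cells/well) pretreated with compounds 1 h, then incubated 24 h with or without 100 ng/μL LPS. Viability by MTT colorimetric assay run in parallel with Griess nitrite measurement.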

[17] = tested on: MDA-MB-231 lung metastasis; test: Lung metastasis of MDA-MB-231 cells in SCID mice; assay type: in vivo, mouse; conditions: post-treatment, 5 mg/kg i.p. every three days
Procedure: Female SCID mice (5 weeks old, average body weight 19.59±1.26 g) were assigned to 8 groups: PIX group (5 mg/kg paclitaxel), DETD-35-2 group (2 mg/kg DETD-35), DETD-35-10 group (10 mg/kg DETD-35). PTX-5+DETD-35-2 group (5 mg/kg paclitaxel and 2 mg/kg DETD-35 administration alternatively for eleven doses of paclitaxel (PTX) and ten doses of DETD-35 in total), tumor (vehicle) group (5% DMSO), and sham group (5% DMSO). Pre-DETD-35-10 group was the mice administered 10 mg/kg DETD-35 every two days for three doses before the i.v. injection of 1×10^6 MDA-MB-231 tumor cells at day 0. All other drug or compounds were administered i.p. every three days starting from day 1. At the end of experiment (day 71), the test mice were sacrificed by cervical dislocation. The lung, liver, kidney, and spleen organs were removed and recorded weights and calculated for organ index (% of organ weight/body weight). The number of tumor colonies on lungs of test mice was counted.

[18] = tested on: MDA-MB-231 cell migration; test: Boyden chamber migration assay; assay type: cell-based, human; conditions: 24 h
Procedure: (§5) To test the anti-migratory and anti-invasive effect of DET. DETD-35 and PTX. Boyden chambers assay was carried out. The lower well of the chamber (6.5 mm diameter, […]; Costar. Cambridge, Mass., USA) was added 10% fetal bovine serum (FBS) as a chemoattractant and filled with DMEM culture medium containing vehicle (DMSO, 0.05%), DET (2.5 and 4 μM). DETD-35 (1.25 and 2.5 μM), or PTX (2.5 and 4 μM). MDA-MB-231 cells were placed into the upper chamber (5×10^4 cells per insert) with the medium containing 0.1% FBS. After 24 h incubation at 37° C. in a 5% CO2 atmosphere, non-migrating cells were scraped from the upper surface of the membrane using a cotton swab, and the migrated cells remaining in the well were fixed and stained with DAPI solution (4,6-diamidino-2-phenylindole, 1 μg/ml). The migrating cells were counted in three fields at 20× original magnifications by inverted fluorescence microscopy. To test the anti-invasive effect of the compounds, 8-μm filters were pre-coating with Matrigel (30 μg per filter) and incubated at 37° C. for 2 h, then followed the protocol of migration assay descried about.

MDA-MB-231 cell invasion = test: Boyden chamber (Matrigel) invasion assay; assay type: cell-based, human; conditions: 24 h
Procedure: as §5

[19] = MCF7, 24 h, read-out: IC50 on cell viability, MCF-7 (ER+, Her2−)
[20] = MCF7, Table 5, 24 h, read-out: IC50 viability MCF-7 (Breast)
[21] = MDA-MB-231, 24 h, read-out: IC50 on cell viability, MDA-MB-231 (ER−, PR−, Her2−)
[22] = MDA-MB-231, Table 5, 24 h, read-out: IC50 viability MDA-MB-231 (Breast)
[23] = 24 h, read-out: IC50 on cell viability, TS/A (ER+, Her2−)
[24] = Table 5, 24 h, read-out: IC50 viability TS/A (mouse) (Breast)
[25] = 24 h, read-out: IC50 on cell viability, B16-F10 (NRAS mutation)
[26] = Table 5, 24 h, read-out: IC50 viability B16-F10 (mouse) (Skin)
[27] = higher concentrations (DET 4 μM, DETD-35 2.5 μM, PTX 4 μM)
[28] = lower concentrations (DET 2.5 μM, DETD-35 1.25 μM, PTX 2.5 μM)

Row | Structure (SMILES) | IC50 [1, 19] [µM] | IC50 [1, 20] [µM] | IC50 [2] [µM] | IC50 [3] [µM] | IC50 [4] [µM] | IC50 [5] [µM] | IC50 [6, 21] [µM] | IC50 [6, 22] [µM] | IC50 [7] [µM] | IC50 [8, 23] [µM] | IC50 [8, 24] [µM] | IC50 [10] [µM] | IC50 [11] [µM] | IC50 (PC3 (Prostate)) [µM] | IC50 [12] [µM] | IC50 (A375 (BRAF mutation)) [µM] | IC50 (A2058 (BRAF mutation)) [µM] | IC50 (HTB-68 (NRAS mutation)) [µM] | IC50 [13] [µM] | IC50 (U937 lymphoma line) [µM] | further results
1 | C=C1C(=O)O[C@H]2CC3=C[C@@H](C/C(C)=C/[C@@H](OC(=O)/C=C/c4ccccc4)[C@H]12)OC3=O [DETD-6] | 1.6 | 4.8 | 1.11 | 0.42 | 2.5 | 0.32 | 4.2 | 4 | 0.35 | 1.6 | 1.8 | > 10 | 0.17 | 4.5 | 4.9 | 3.3 | 3.9 | 5.7 | 0.42 | 0.18 | IC50 [9]: 1.6 to 9.9 µM; IC50 on cell viability, M10 (normal) [12]: some toxicity; IC50 [14]: 9.9 µM; IC50 [15]: 0.11 µM; IC50 (B16-F10 (NRAS mutation); [25]): 3.9 µM; IC50 (B16-F10 (NRAS mutation); [26]): 3.9 µM; IC50 [16]: > 10 µM
2 | C=C1C(=O)O[C@H]2CC3=C[C@@H](C/C(C)=C/[C@@H](OC(=O)c4ccc(OC)cc4)[C@H]12)OC3=O [DETD-32] | 4.3 | 4.3 | 1.48 | 0.82 | 2.6 | 0.51 | 3.9 | 3.9 | 0.42 | 1.9 | 1.9 | > 10 | 0.47 | 6.2 | > 7.5 | > 10 | > 10 | > 10 | 0.5 | 0.39 | IC50 [14]: > 10 µM; IC50 [15]: 0.36 µM; IC50 (B16-F10 (NRAS mutation); [25]): 4.2 µM; IC50 (B16-F10 (NRAS mutation); [26]): 4.2 µM; IC50 [16]: > 10 µM
3 | CC(=O)O[C@H]1C(=O)[C@@]2(C)[C@H]([C@H](OC(=O)c3ccccc3)[C@]3(O)C[C@H](OC(=O)[C@H](O)[C@@H](NC(=O)c4ccccc4)c4ccccc4)C(C)=C1C3(C)C)[C@]1(OC(C)=O)CO[C@@H]1C[C@@H]2O [PTX, paclitaxel] |  |  |  |  |  |  |  |  |  |  |  |  |  |  |  |  |  |  |  |  | reduction of number of tumor foci in lungs vs tumor control [17]: 62%; IC60 on MDA-MB-231 cells ([6]; 24 h): 0.0238 µM; reduction of cell migration vs vehicle control [18, 27]: 88%; suppression of cell migration vs vehicle control [18, 28]: 87%; inhibition of cell invasion (MDA-MB-231 cell invasion; [27]): 90%; inhibition of cell invasion (MDA-MB-231 cell invasion; [28]): 85%
